Legend:
[1] = molecular target: GLP-1R in EndoC-βH1 cells (Homo sapiens (Human), UniProt P43220); assay: EndoC cAMP Accumulation Assay; assay type: cell-based; settings: EndoC-βH1 human pancreatic beta cell line; HTRF cAMP accumulation
Excerpt: EndoC cAMP Accumulation Assay
A HTRF cAMP assay (cAMP Gs dynamic kit; CisoBio Cat #62AM4PEJ) was used to identify agonists of GLP-1R in a pancreatic insulinoma cell line (EndoC-βH1). […] EndoC-βH1 cells have detectable GLP-1R messenger ribonucleic acid (mRNA) as detected by quantitative polymerase chain reaction (qPCR). […] The EndoC-βH1 cell line is a valid model of human beta cells and applicable for screenings to identify novel drug target candidates (Mol. Metab., 2018, 8, 144-157). CisBio HTRF cAMP kits are based on a competitive immunoassay using cryptate-labelled anti-cAMP antibody and d2-labeled cAMP. The detection kit is intended for the direct quantitative determination of cAMP. The specific signal (i.e. energy transfer) is inversely proportional to the concentration of cAMP in the standard or sample. Test compounds (10 mM in DMSO) were diluted into assay buffer (HBSS (Sigma #H8264) supplemented with 25 mM HEPES (Gibco #15630, pH 7.4), 0.1% BSA (Sigma #A3059) and 0.5 mM IBMX (Sigma #17018) included fresh on the day of the assay) into 96 well U-bottom plates (Greiner #650201). Diluted compounds were transferred to ECHO source polypropylene plates (Labcyte #P-05525) and dose response curves were dispensed acoustically using ECHO 550 into black shallow-well u-bottom 384-well HTRF Assay Plates (Corning 4514).
Cryovials of EndoC-H1 (supplied at 1×10e^7 cells/vial) were used directly for screening. The cryovials and were removed from N2 (1) and thawed rapidly in a 37° C. water bath. The cells were resuspended in assay buffer and centrifuged at 300 g for 5 min. Cells were resuspended in assay buffer at the appropriate concentration, typically at 12e5 cells per mL (3000 cells per well, dependent on cell batch) and 2.5 μL diluted cells were added to all wells of destination plate by Multidrop combi reagent dispenser (Thermofisher). The plates were incubated at rt for 30 min. The assay was stopped by adding 2.5 μL anti-cAMP cryptate solution to all wells and 2.5 μL cAMP-d2 solution (both diluted 1:20 in lysis buffer) to columns 1-22 by Combi drop. A volume of 2.5 μL cAMP-d2 solution was added to wells E23 to P24 and 2.5 μL lysis buffer added to wells A23 to D24 by multichannel pipette. The plates were incubated at rt for 1 h and read on an Envision plate reader using excitation wavelength of 320 nm and emission of […] and 660 nm.
Raw data from Envision is converted to % DeltaF according to the manufacturer's instructions. Dose response curves are analysed via 4-Parameter Logistical Analysis and assay plate Z′ values obtained. Samples are graphed as percentage (%) activation plots compared to GIP (1-42, Bachem H-5645) with assay window defined by negative control as basal cell cAMP levels and positive control are defined by maximum GIP (82.5 nM) signal. GLP1 (7-36 amide, Bachem H-6795) dose response curve was included on all plates.

[2] = molecular target: human GLP-1R receptor (Homo sapiens (Human), UniProt P43220, L260F); assay: CHOK1 GLP-1R cAMP Assay; assay type: cell-based; settings: CHO-K1 cell line stably expressing human GLP-1R; HTRF cAMP; agonist activity
Experimental: A cell line stably expressing the human GLP-1R receptor (NM 002062.5, including the naturally-occurring variant Leu260Phe) in a CHO-K1 (ATCC® CCL-61™) was used for assay.
GLP-1 receptor mediated agonist activity was determined in a cell based assay measuring cyclic adenosine monophosphate (cAMP) levels in cells using Homogeneous Time-Resolved Fluorescence (HTRF) cAMP detection kit (CisBio catalog #62AM4PEC, cAMP Gs Dynamic range kit). The cAMP detection method is based on a competitive immunoassay, in which cAMP produced by the cells and cAMP labeled with the dye d2 compete for binding to a Europium-Cryptate-labeled anti-cAMP antibody. The specific HTRF signal is inversely proportional to the concentration of cAMP.
Compounds were added to individual well in 384 well-assay plates (Greiner #784076) using an Echo (LabCyte) dispenser from 10 mM stocks. Varying concentration of compounds were added to wells, and DMSO was used to normalize each well to a volume of 100 nL. A dose response curve of GLP1(7-36)NH2 (Bachem H-6795) was included in each run. 5 μL of cAMP concentration response standards are applied in specified wells in the assay plates. Cryo-preserved cells are thawed and resuspended in assay buffer pre-heated to 37° C. (20 mM HEPES pH 7.4, lx Hank's Balanced Salt Solution (HBSS, Life Technologies #14065) supplemented with 0.1% (w/v) bovine serum albumin (Sigma, A-7030). Cells were centrifuged at 250*g for 5 min at rt, and resuspended in room tempered assay buffer to a final density of 0.16*10^6 cell/mL, to deliver 800 cells/well. 5 μL of assay buffer with 1 mM 3-isobutyl-1-methylxanthin (IBMX; Sigma cat I-7018) was dispensed per well in assay plates using a multidrop combi (Thermo Scientific) subsequently 5 μL of cell suspension was distributed to relevant wells in the assay using a multidrop dispenser. Assay plates were incubated 20 min at rt.
Detection reagents, Europium-Cryptate-labeled anti-cAMP antibody and cAMP labeled with the dye d2, are diluted in lysis buffer, provided by the manufacturer. 5 μL of each detection reagent is supplemented to each assay well using a multidrop dispenser. Assay plates are incubated in the dark for at least one h. The HTRF signal is measured using the HTRF module (excitation: 337 nm, emission A: 665 nm and emission B: 620 nm) in Pherastar FSX (BMG Labtech).
Raw data were converted to pM cAMP using the cAMP standard curve included in each run. Converted data were further analyzed in Genedata Screener (Genedata) and EC50 determinations were made from agonist dose-response curves analyzed with a curve fitting program using a 4-parameter logistic dose response equation (Equation y=A+((B−A)/1+((C/x)^D))) where A is no stimulation, B is full stimulation, C is the EC50 and D is the Hill slope). The percent effect was determined relative to a saturating concentration of a full GLP-1R agonist (GLP1(7-36)NH2 has 100% effect in this assay setup).

Chain of human GLP-1R receptor (P43220 24-463 L260F): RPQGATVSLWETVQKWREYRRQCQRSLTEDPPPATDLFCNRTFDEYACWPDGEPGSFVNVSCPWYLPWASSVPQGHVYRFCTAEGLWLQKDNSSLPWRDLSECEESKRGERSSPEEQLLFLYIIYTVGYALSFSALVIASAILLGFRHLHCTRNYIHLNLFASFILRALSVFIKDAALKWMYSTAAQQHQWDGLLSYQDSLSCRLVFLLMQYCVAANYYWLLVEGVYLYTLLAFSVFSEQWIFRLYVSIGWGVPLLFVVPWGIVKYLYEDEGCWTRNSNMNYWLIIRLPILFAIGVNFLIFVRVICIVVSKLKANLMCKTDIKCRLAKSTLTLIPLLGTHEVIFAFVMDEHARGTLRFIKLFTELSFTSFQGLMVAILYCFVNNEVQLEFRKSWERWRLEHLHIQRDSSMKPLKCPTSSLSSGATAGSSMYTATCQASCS
Chain of GLP-1R in EndoC-βH1 cells (P43220 24-463): as the sequence (P43220 24-463 L260F) above, with F237L counted along it

Molecule | EC50 [1] [µM] | EC50 [2] [µM]
2-(((1R,5S,6S)-6-(6-((4-Cyano-2-fluorobenzyl)oxy)pyridin-2-yl)-3-azabicyclo[3.1.0]hexan-3-yl)methyl)-4-methoxy-1-(((S)-oxetan-2-yl)methyl)-1H-benzo[d]imidazole-6-carboxylic acid [Example 5] | 0.2 | 0.24
COc1cc(C(=O)O)cc2c1nc(CN1C[C@@H]3[C@H](C1)[C@H]3c1nc(OCc3ccc(C#N)cc3F)ccc1F)n2C[C@@H]1CCO1 [Example 1, 2-(((1R,5S,6S)-6-(6-((4-Cyano-2-fluorobenzyl)oxy)-3-fluoropyridin-2-yl)-3-azabicyclo[3.1.0]hexan-3-yl)methyl)-4-methoxy-1-(((S)-oxetan-2-yl)methyl)-1H-benzo[d]imidazole-6-carboxylic acid] | 0.005 | 0.0077
COc1cc(C(=O)O)cc2c1nc(CN1C[C@@H]3[C@H](C1)[C@H]3c1cccc(OCc3ccc(C#N)cc3F)n1)n2C[C@@H]1CCO1 [Example 4, 2-(((1R,5S,6S)-6-(6-((4-Cyano-2-fluorobenzyl)oxy)pyridin-2-yl)-3-azabicyclo[3.1.0]hexan-3-yl)methyl)-4-methoxy-1-(((S)-oxetan-2-yl)methyl)-1H-benzo[d]imidazole-6-carboxylic acid] | 0.0058 | 0.012
N#Cc1ccc(COc2cccc([C@H]3[C@@H]4CN(Cc5nc6c(Cl)cc(C(=O)O)cc6n5C[C@@H]5CCO5)C[C@@H]43)n2)c(F)c1 [Example 8, 4-Chloro-2-(((1R,5S,6S)-6-(6-((4-cyano-2-fluorobenzyl)oxy)pyridin-2-yl)-3-azabicyclo[3.1.0]hexan-3-yl)methyl)-1-(((S)-oxetan-2-yl)methyl)-1H-benzo[d]imidazole-6-carboxylic acid] | 0.01 | 0.02
Cc1cc(C(=O)O)cc2c1nc(CN1C[C@@H]3[C@H](C1)[C@H]3c1cccc(OCc3ccc(C#N)cc3F)n1)n2C[C@@H]1CCO1 [Example 9, 2-(((1R,5S,6S)-6-(6-((4-Cyano-2-fluorobenzyl)oxy)pyridin-2-yl)-3-azabicyclo[3.1.0]hexan-3-yl)methyl)-4-methyl-1-(((S)-oxetan-2-yl)methyl)-1H-benzo[d]imidazole-6-carboxylic acid] | 0.056 | 0.078
COc1cc(C(=O)O)cc2c1nc(CN1C[C@@H]3[C@H](C1)[C@H]3c1cccc(OCc3ccc(Cl)cc3F)n1)n2C[C@@H]1CCO1 [Example 11, 2-(((1R,5S,6S)-6-(6-((4-Chloro-2-fluorobenzyl)oxy)pyridin-2-yl)-3-azabicyclo[3.1.0]hexan-3-yl)methyl)-4-methoxy-1-(((S)-oxetan-2-yl)methyl)-1H-benzo[d]imidazole-6-carboxylic acid] | 0.0065 | 0.017

Further lines, results first:

EC50 [1] [µM] | EC50 [2] [µM] | Molecule
0.026 | 0.03 | N#Cc1ccc(COc2ccc(F)c([C@H]3[C@@H]4CN(Cc5nc6ccc(C(=O)O)cc6n5C[C@@H]5CCO5)C[C@@H]43)n2)c(F)c1 [Example 2, 2-(((1R,5S,6S)-6-(6-((4-Cyano-2-fluorobenzyl)oxy)-3-fluoropyridin-2-yl)-3-azabicyclo[3.1.0]hexan-3-yl)methyl)-1-(((S)-oxetan-2-yl)methyl)-1H-benzo[d]imidazole-6-carboxylic acid]
0.021 | 0.075 | N#Cc1ccc(COc2cccc([C@H]3[C@@H]4CN(Cc5nc6ccc(C(=O)O)cc6n5C[C@@H]5CCO5)C[C@@H]43)n2)c(F)c1 [Example 3, 2-(((1R,5S,6S)-6-(6-((4-Cyano-2-fluorobenzyl)oxy)pyridin-2-yl)-3-azabicyclo[3.1.0]hexan-3-yl)methyl)-1-(((S)-oxetan-2-yl)methyl)-1H-benzo[d]imidazole-6-carboxylic acid]
0.29 | – | N#Cc1ccc(COc2cccc([C@H]3[C@@H]4CN(Cc5nc6ccc(C(=O)O)cc6n5C[C@@H]5CCCO5)C[C@@H]43)n2)c(F)c1 [Example 6, 2-(((1R,5S,6S)-6-(6-((4-Cyano-2-fluorobenzyl)oxy)pyridin-2-yl)-3-azabicyclo[3.1.0]hexan-3-yl)methyl)-1-(((S)-tetrahydrofuran-2-yl)methyl)-1H-benzo[d]imidazole-6-carboxylic acid]
0.038 | 0.017 | CCn1cncc1Cn1c(CN2C[C@@H]3[C@H](C2)[C@H]3c2nc(OCc3ccc(C#N)cc3F)ccc2F)nc2c(OC)cc(C(=O)O)cc21 [Example 7, 2-(((1R,5S,6r)-6-(6-((4-Cyano-2-fluorobenzyl)oxy)-3-fluoropyridin-2-yl)-3-azabicyclo[3.1.0]hexan-3-yl)methyl)-1-((1-ethyl-1H-imidazol-5-yl)methyl)-4-methoxy-1H-benzo[d]imidazole-6-carboxylic acid]
0.088 | 0.042 | CCn1cncc1Cn1c(CN2C[C@@H]3[C@H](C2)[C@H]3c2cccc(OCc3ccc(C#N)cc3F)n2)nc2ccc(C(=O)O)cc21 [Example 10, 2-(((1R,5S,6r)-6-(6-((4-Cyano-2-fluorobenzyl)oxy)pyridin-2-yl)-3-azabicyclo[3.1.0]hexan-3-yl)methyl)-1-((1-ethyl-1H-imidazol-5-yl)methyl)-1H-benzo[d]imidazole-6-carboxylic acid]
0.15 | 0.097 | CCn1cncc1Cn1c(CN2C[C@@H]3[C@H](C2)[C@H]3c2cccc(OCc3ccc(Cl)cc3F)n2)nc2ccc(C(=O)O)cc21 [Example 12, 2-(((1R,5S,6r)-6-(6-((4-Chloro-2-fluorobenzyl)oxy)pyridin-2-yl)-3-azabicyclo[3.1.0]hexan-3-yl)methyl)-1-((1-ethyl-1H-imidazol-5-yl)methyl)-1H-benzo[d]imidazole-6-carboxylic acid]
0.0074 | 0.03 | CCn1cncc1Cn1c(CN2C[C@@H]3[C@H](C2)[C@H]3c2cccc(OCc3ccc(Cl)cc3F)n2)nc2c(OC)cc(C(=O)O)cc21 [Example 14, 2-(((1R,5S,6r)-6-(6-((4-Chloro-2-fluorobenzyl)oxy)pyridin-2-yl)-3-azabicyclo[3.1.0]hexan-3-yl)methyl)-1-((1-ethyl-1H-imidazol-5-yl)methyl)-4-methoxy-1H-benzo[d]imidazole-6-carboxylic acid]
